Experimental data taken from patent US20240000767A1, “COMBINATION OF AN ALPHA2-ADRENOCEPTOR SUBTYPE C (ALPHA-2C) ANTAGONIST WITH A TASK1/3 CHANNEL BLOCKER FOR THE TREATMENT OF SLEEP APNEA” (Bayer Aktiengesellschaft, priority 2020, published 2024).

Test system: anaesthetized, spontaneously breathing pigs
Test: Pig model of obstructive sleep apnea (OSA): upper airway collapsibility under negative pressure
Type: in vivo, German Landrace pigs
Details: for upper airway collapsibility / time points at which upper airway collapsibility was inhibited at all negative pressures of −50, −100 and −150 cm H2O in all pigs: alone
Excerpt: B-3 Animal Model of Obstructive Sleep Apnoea in the Pig
Using negative pressure, it is possible to induce collapse and thus obstruction of the upper respiratory tract in anesthetized, spontaneously breathing pigs [Wirth et al., Sleep 36, 699-708 (2013)].
German Landrace pigs are used for the model. The pigs are anesthetized and tracheotomized. One cannula each is inserted into the rostral and the caudal part of the trachea. Using a T connector, the rostral cannula is connected on the one hand to a device generating negative pressures and on the other hand to the caudal cannula. Using a T connector, the caudal cannula is connected to the rostral cannula and to a tube which allows spontaneous breathing circumventing the upper respiratory tract. By appropriate closing and opening of the tubes it is thus possible for the pig to change from normal nasal breathing to breathing via the caudal cannula during the time when the upper respiratory tract is isolated and connected to the device for generating negative pressures. The muscle activity of the musculus genioglossus is recorded by electromyogram (EMG).
(§1) At certain points in time, the collapsibility of the upper respiratory tract is tested by having the pig breathe via the caudal cannula and applying negative pressures of −50, −100 and −150 cm water head (cmH2O) to the upper respiratory tract. This causes the upper respiratory tract to collapse, which manifests itself in an interruption of the airflow and a pressure drop in the tube system. This test is conducted prior to the administration of the test substance and at certain intervals after the administration of the test substance. An appropriately effective test substance can prevent this collapse of the respiratory tract in the inspiratory phase.
Administration of the test substance can be intranasal, intravenous, subcutaneous, intraperitoneal, intraduodenal or intragastral.
The therapeutic potential of the combination of an α2-Adrenoceptor subtype C (alpha-2C) antagonists with a TASK⅓ channel blocker according to the present invention in sleep apnea can be assessed preclinically in a pig model of obstructive sleep apnea (OSA).
Using negative pressure, it is possible to induce collapse and thus obstruction of the upper respiratory tract in anaesthetized, spontaneously breathing pigs (Wirth K. J. et al., Sleep 36(5) (2013) pp. 699-708).
German Landrace pigs are used for the model. The pigs are anaesthetized and tracheotomized. Two tracheal cannulas are inserted into the trachea, one into the rostral part and the other into the caudal part of the trachea. Using a connection piece, the rostral cannula is connected to a tube to the negative pressure device and to the distal tracheal cannula. The distal tracheal cannula is additionally connected to a tube with an open end to atmosphere via a connection piece that served for free tracheal breathing, circumventing the upper airway. By appropriate opening and clamping of those tubes breathing can be switched from nasal breathing to breathing through the caudal tracheal cannula, circumventing the upper airway, and the (isolated) upper airway can be connected to the negative pressure device, causing airflow in the inspiratory direction.
as §1, with “(cm H2O)” for “(cmH2O)”

[1] = 0.01 mg/kg intraduodenal at 0 min, time 0 min
[2] = 0.01 mg/kg intraduodenal at 0 min, time 30 min
[3] = 0.01 mg/kg intraduodenal at 0 min, time 60 min
[4] = 0.01 mg/kg intraduodenal at 0 min, time 90 min
[5] = 0.01 mg/kg intraduodenal at 0 min, time 120 min
[6] = 0.01 mg/kg intraduodenal at 0 min, time 150 min
[7] = 0.01 mg/kg intraduodenal at 0 min, time 180 min
[8] = 0.01 mg/kg intraduodenal at 0 min, time 210 min
[9] = 0.01 mg/kg intraduodenal at 0 min, time 230 min
[10] = second set, 0.01 mg/kg intraduodenal at 0 min, time 0 min
[11] = second set, 0.01 mg/kg intraduodenal at 0 min, time 30 min
[12] = second set, 0.01 mg/kg intraduodenal at 0 min, time 60 min
[13] = second set, 0.01 mg/kg intraduodenal at 0 min, time 90 min
[14] = second set, 0.01 mg/kg intraduodenal at 0 min, time 120 min
[15] = second set, 0.01 mg/kg intraduodenal at 0 min, time 150 min
[16] = second set, 0.01 mg/kg intraduodenal at 0 min, time 180 min
[17] = 15 μg/kg i.v. bolus then 5 μg/kg/h i.v. infusion for four hours from 0 min, time 0 min
[18] = 15 μg/kg i.v. bolus then 5 μg/kg/h i.v. infusion for four hours from 0 min, time 30 min
[19] = 15 μg/kg i.v. bolus then 5 μg/kg/h i.v. infusion for four hours from 0 min, time 60 min
[20] = 15 μg/kg i.v. bolus then 5 μg/kg/h i.v. infusion for four hours from 0 min, time 90 min
[21] = 15 μg/kg i.v. bolus then 5 μg/kg/h i.v. infusion for four hours from 0 min, time 120 min

Question: Which “Percent pigs without collaps −50 cm H2O” value [1] does the source give for `C[C@@H]1CCCN(C2CCN(c3ncc(C(=O)NCc4ncc(F)cc4F)s3)CC2)C1` [N-[(3,5-difluoropyridin-2-yl)methyl]-2-[(3R)-3-methyl[1,4′-bipiperidin]-1′-yl]-1,3-thiazole-5-carboxamide] here?
Answer: 0%

Question: What about the “Percent pigs without collaps −100 cm H2O” value [1] of the same molecule?
Answer: 0%

Question: What about the “Percent pigs without collaps −150 cm H2O” value [1] of the same molecule?
Answer: 0%

Question: What about the “Percent pigs without collaps −50 cm H2O” value [2] of the same molecule?
Answer: 0%

Question: And the “Percent pigs without collaps −100 cm H2O” value [2]?
Answer: 0%

Question: And the “Percent pigs without collaps −150 cm H2O” value [2]?
Answer: 0%

Question: And the “Percent pigs without collaps −50 cm H2O” value [3]?
Answer: 0%

Question: What about the “Percent pigs without collaps −100 cm H2O” value [3] of the same molecule?
Answer: 0%

Question: What about the “Percent pigs without collaps −150 cm H2O” value [3] of the same molecule?
Answer: 0%

Question: What about the “Percent pigs without collaps −50 cm H2O” value [4] of the same molecule?
Answer: 33%

Question: And the “Percent pigs without collaps −100 cm H2O” value [4]?
Answer: 33%

Question: What about the “Percent pigs without collaps −150 cm H2O” value [4] of the same molecule?
Answer: 33%

Question: What about the “Percent pigs without collaps −50 cm H2O” value [5] of the same molecule?
Answer: 100%

Question: What about the “Percent pigs without collaps −100 cm H2O” value [5] of the same molecule?
Answer: 100%

Question: And the “Percent pigs without collaps −150 cm H2O” value [5]?
Answer: 67%

Question: And the “Percent pigs without collaps −50 cm H2O” value [6]?
Answer: 100%

Question: And the “Percent pigs without collaps −100 cm H2O” value [6]?
Answer: 100%

Question: And the “Percent pigs without collaps −150 cm H2O” value [6]?
Answer: 100%

Question: What about the “Percent pigs without collaps −50 cm H2O” value [7] of the same molecule?
Answer: 100%

Question: What about the “Percent pigs without collaps −100 cm H2O” value [7] of the same molecule?
Answer: 100%

Question: And the “Percent pigs without collaps −150 cm H2O” value [7]?
Answer: 100%

Question: What about the “Percent pigs without collaps −50 cm H2O” value [8] of the same molecule?
Answer: 67%

Question: What about the “Percent pigs without collaps −100 cm H2O” value [8] of the same molecule?
Answer: 33%

Question: And the “Percent pigs without collaps −150 cm H2O” value [8]?
Answer: 0%

Question: And the “Percent pigs without collaps −50 cm H2O” value [9]?
Answer: 0%

Question: And the “Percent pigs without collaps −100 cm H2O” value [9]?
Answer: 0%

Question: What about the “Percent pigs without collaps −150 cm H2O” value [9] of the same molecule?
Answer: 0%

Question: And the upper airway collapsibility (0.01 mg/kg intraduodenal, 230 min after administration, all pigs)?
Answer: induced at all negative pressures

Question: What about the “time points at which upper airway collapsibility was inhibited at all negative pressures of −50, −100 and −150 cm H2O in all pigs” value (0.01 mg/kg intraduodenal, first set) of the same molecule?
Answer: only at time point 150 and 180 min

Question: And the “time points at which upper airway collapsibility was inhibited at all negative pressures of −50, −100 and −150 cm H2O in all pigs” value (0.01 mg/kg intraduodenal, second set)?
Answer: at no time point

Question: And the “Percent pigs without collaps −50 cm H2O” value [10]?
Answer: 0%

Question: What about the “Percent pigs without collaps −100 cm H2O” value [10] of the same molecule?
Answer: 0%

Question: And the “Percent pigs without collaps −150 cm H2O” value [10]?
Answer: 0%

Question: And the “Percent pigs without collaps −50 cm H2O” value [11]?
Answer: 0%

Question: What about the “Percent pigs without collaps −100 cm H2O” value [11] of the same molecule?
Answer: 0%

Question: And the “Percent pigs without collaps −150 cm H2O” value [11]?
Answer: 0%

Question: What about the “Percent pigs without collaps −50 cm H2O” value [12] of the same molecule?
Answer: 50%

Question: What about the “Percent pigs without collaps −100 cm H2O” value [12] of the same molecule?
Answer: 0%

Question: And the “Percent pigs without collaps −150 cm H2O” value [12]?
Answer: 0%

Question: And the “Percent pigs without collaps −50 cm H2O” value [13]?
Answer: 100%

Question: What about the “Percent pigs without collaps −100 cm H2O” value [13] of the same molecule?
Answer: 50%

Question: And the “Percent pigs without collaps −150 cm H2O” value [13]?
Answer: 50%

Question: What about the “Percent pigs without collaps −50 cm H2O” value [14] of the same molecule?
Answer: 100%

Question: What about the “Percent pigs without collaps −100 cm H2O” value [14] of the same molecule?
Answer: 100%

Question: What about the “Percent pigs without collaps −150 cm H2O” value [14] of the same molecule?
Answer: 0%

Question: What about the “Percent pigs without collaps −50 cm H2O” value [15] of the same molecule?
Answer: 50%

Question: What about the “Percent pigs without collaps −100 cm H2O” value [15] of the same molecule?
Answer: 0%

Question: What about the “Percent pigs without collaps −150 cm H2O” value [15] of the same molecule?
Answer: 0%

Question: And the “Percent pigs without collaps −50 cm H2O” value [16]?
Answer: 0%

Question: What about the “Percent pigs without collaps −100 cm H2O” value [16] of the same molecule?
Answer: 0%

Question: What about the “Percent pigs without collaps −150 cm H2O” value [16] of the same molecule?
Answer: 0%

Question: And the upper airway collapsibility (second set, 0.01 mg/kg intraduodenal, 90 min after administration)?
Answer: only inhibited at negative pressures of −50 cm head

Question: What about the upper airway collapsibility (second set, 0.01 mg/kg intraduodenal, 120 min after administration) of the same molecule?
Answer: only inhibited at negative pressures of −50 and −100 cm head

Question: What about the upper airway collapsibility (second set, 0.01 mg/kg intraduodenal, 180 min after administration, all pigs) of the same molecule?
Answer: induced at all negative pressures

Question: `COCC1CCCN(C2CCN(c3ncc(C(=O)NCc4ncc(F)cc4F)s3)CC2)C1` (stereo not shown) was tested. Which “Percent pigs without collaps −50 cm H2O” value [17] did it give?
Answer: 0%

Question: What about the “Percent pigs without collaps −100 cm H2O” value [17] of the same molecule?
Answer: 0%

Question: What about the “Percent pigs without collaps −150 cm H2O” value [17] of the same molecule?
Answer: 0%

Question: And the “Percent pigs without collaps −50 cm H2O” value [18]?
Answer: 0%

Question: And the “Percent pigs without collaps −100 cm H2O” value [18]?
Answer: 0%

Question: What about the “Percent pigs without collaps −150 cm H2O” value [18] of the same molecule?
Answer: 0%

Question: What about the “Percent pigs without collaps −50 cm H2O” value [19] of the same molecule?
Answer: 0%

Question: What about the “Percent pigs without collaps −100 cm H2O” value [19] of the same molecule?
Answer: 0%

Question: What about the “Percent pigs without collaps −150 cm H2O” value [19] of the same molecule?
Answer: 0%

Question: What about the “Percent pigs without collaps −50 cm H2O” value [20] of the same molecule?
Answer: 50%

Question: And the “Percent pigs without collaps −100 cm H2O” value [20]?
Answer: 50%

Question: What about the “Percent pigs without collaps −150 cm H2O” value [20] of the same molecule?
Answer: 50%

Question: What about the “Percent pigs without collaps −50 cm H2O” value [21] of the same molecule?
Answer: 0%

Question: And the “Percent pigs without collaps −100 cm H2O” value [21]?
Answer: 0%

Question: And the “Percent pigs without collaps −150 cm H2O” value [21]?
Answer: 0%

Question: And the “time points at which upper airway collapsibility was inhibited at all negative pressures of −50, −100 and −150 cm H2O in all pigs” value (third set, 15 μg/kg i.v. bolus followed by i.v. infusion of 5 μg/kg/h for four hours)?
Answer: at no time point
